Assay results as given in ChEMBL document CHEMBL1152694, “Synthetic medicinal chemistry of selected antimalarial natural products” (Bioorg Med Chem, 2009).

Tests used:
[1] = Selectivity ratio of cytotoxicity to human KB cells to antimalarial activity against Plasmodium falciparum; type: cell-based
Plasmodium berghei = assay: Antimalarial activity against Plasmodium berghei infected mice (Mus musculus); type: functional

SMILES	selectivity ratio [1]	ED50 (Plasmodium berghei) [µmol/kg]
CC[C@](C)(O)C(=O)O[C@H]1C(=O)O[C@@H]2C[C@H]3C(C)=CC(=O)[C@@H](O)[C@]3(C)[C@H]3[C@@]4(O)OC[C@]32[C@@H]1[C@@H](C)[C@H]4O [GLAUCARUBINONE]	285	
CC1(C)[C@@H](n2cnc3ccccc3c2=O)C(=O)C[C@@H]2[C@@H](O)CCCN21		6
CC1(C)[C@H](n2cnc3ccccc3c2=O)CC[C@H]2[C@@H](O)CCCN21		145
